Legend:
[1] = test system: Italian ryegrass (Lolium multiflorum); test: Test C postemergence; format: in vivo
Summary of the method: (§1)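 Greenhouse herbicide screen, visual readout. Compound in solvent/surfactant applied preemergence at planting or postemergence to 1- to 4-leaf plants; assessed at 12–14 days on a 0–100 control scale.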

[2] = test system: blackgrass (Alopecurus myosuroides); test: Test C postemergence; format: in vivo
Summary of the method: as §1

[3] = test system: canarygrass (Phalaris minor); test: Test C postemergence; format: in vivo
Summary of the method: as §1

[4] = test system: downy brome (Bromus tectorum); test: Test C postemergence; format: in vivo
Summary of the method: as §1

[5] = test system: green foxtail (Setaria viridis); test: Test C postemergence; format: in vivo
Summary of the method: as §1

[6] = test system: wheat (Triticum aestivum); test: Test C postemergence; format: in vivo
Summary of the method: as §1

wild oat (Avena fatua) = test: Test C postemergence; format: in vivo
Summary of the method: as §1

[7] = test system: windgrass (Apera spica-venti); test: Test C postemergence; format: in vivo
Summary of the method: as §1

[8] = test system: bearded (brdd.) sprangletop (Leptochloa fusca ssp. fascicularis); test: Test E flooded paddy water application; format: in vivo; settings: Flood, 21 days, scale 0 to 100 (0 no effect, 100 complete control)
Summary of the method: (§2)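 Weeds sown in sterilized Tama silt loam (2.6% organic matter), greenhouse 29.5/26.7° C, 16-h photoperiod; at 2.0–2.5-leaf stage pots flooded to 3 cm and compound added to paddy water. Visual rating vs untreated controls after 21 days, 0 (no effect) to 100 (complete control).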

[9] = test system: junglerice (Echinochloa colona); test: Test E flooded paddy water application; format: in vivo; settings: Flood, 21 days, scale 0 to 100 (0 no effect, 100 complete control)
Summary of the method: as §2

[10] = test system: late watergrass (Echinochloa oryzicola); test: Test E flooded paddy water application; format: in vivo; settings: Flood, 21 days, scale 0 to 100 (0 no effect, 100 complete control)
Summary of the method: as §2

[11] = test system: rice flatsedge (Cyperus iria); test: Test E flooded paddy water application; format: in vivo; settings: Flood, 21 days, scale 0 to 100 (0 no effect, 100 complete control)
Summary of the method: as §2

[12] = test system: smallflower umbrella sedge (Cyperus difformis); test: Test E flooded paddy water application; format: in vivo; settings: Flood, 21 days, scale 0 to 100 (0 no effect, 100 complete control)
Summary of the method: as §2

In the case of `Nc1nc(-c2ccc(Cl)cc2)nc(C(=O)O)c1Cl` [Compound 65, 6-amino-5-chloro-2-(4-chlorophenyl)-4-pyrimidinecarboxylic acid], the “Plant response rating (scale of 0 to 100), Ryegrass, Italian” value (“Plant response rating … Italian” below) ([1]; 16 g ai/ha) is reported as 10, the “Plant response rating … Italian” value ([1]; 31 g ai/ha) is reported as 50 and the “Plant response rating … Italian” value ([1]; 62 g ai/ha) is reported as 55. The pest or weed control at 125 g/ha ([1]; Lolium multiflorum, post-emergence, 125 g ai/ha, scale 0 to 100 (0 no effect, 100 complete control), read-out: Ryegrass, Italian plant response rating) was 60%, the “Plant response rating (scale of 0 to 100), Blackgrass” value (“Plant response rating … Blackgrass” for short) ([2]; 16 g ai/ha) was 50 and the “Plant response rating … Blackgrass” value ([2]; 31 g ai/ha) was 60. The “Plant response rating … Blackgrass” value ([2]; 62 g ai/ha) was 65, the pest or weed control at 125 g/ha ([2]; Alopecurus myosuroides, post-emergence, 125 g ai/ha, scale 0 to 100 (0 no effect, 100 complete control), read-out: Blackgrass plant response rating) was 65% and the “Plant response rating (scale of 0 to 100), Canarygrass” value (“Plant response rating … Canarygrass” for short) ([3]; 16 g ai/ha) was 30. The “Plant response rating … Canarygrass” value ([3]; 31 g ai/ha) was 30, the “Plant response rating … Canarygrass” value ([3]; 62 g ai/ha) was 35 and the pest or weed control at 125 g/ha ([3]; Phalaris minor, post-emergence, 125 g ai/ha, scale 0 to 100 (0 no effect, 100 complete control), read-out: Canarygrass plant response rating) was 45%. The “Plant response rating (scale of 0 to 100), Bromegrass, Downy” value (from here on “Plant response rating … Downy”) ([4]; 16 g ai/ha) was 40, the “Plant response rating … Downy” value ([4]; 31 g ai/ha) was 50 and the “Plant response rating … Downy” value ([4]; 62 g ai/ha) was 50. For the same molecule, the pest or weed control at 125 g/ha ([4]; Bromus tectorum, post-emergence, 125 g ai/ha, scale 0 to 100 (0 no effect, 100 complete control), read-out: Bromegrass, Downy plant response rating) was 55%, the “Plant response rating (scale of 0 to 100), Foxtail, Green” value (“Plant response rating … Green” below) ([5]; 16 g ai/ha) was 50 and the “Plant response rating … Green” value ([5]; 31 g ai/ha) was 55. For the same molecule, the “Plant response rating … Green” value ([5]; 62 g ai/ha) was 60, the pest or weed control at 125 g/ha ([5]; Setaria viridis, post-emergence, 125 g ai/ha, scale 0 to 100 (0 no effect, 100 complete control), read-out: Foxtail, Green plant response rating) was 70% and the “Plant response rating (scale of 0 to 100), Wheat” value (“Plant response rating … Wheat” for short) ([6]; 16 g ai/ha) was 40. For the same molecule, the “Plant response rating … Wheat” value ([6]; 31 g ai/ha) was 40, the “Plant response rating … Wheat” value ([6]; 62 g ai/ha) was 45 and the plant injury at 125 g/ha ([6]; Triticum aestivum, post-emergence, 125 g ai/ha, scale 0 to 100 (0 no effect, 100 complete control), read-out: Wheat plant response rating) was 45%. The “Plant response rating (scale of 0 to 100), Oat, Wild” value (“Plant response rating … Wild” below) (wild oat (Avena fatua); 16 g ai/ha) was 5, the “Plant response rating … Wild” value (wild oat (Avena fatua); 31 g ai/ha) was 15 and the “Plant response rating … Wild” value (wild oat (Avena fatua); 62 g ai/ha) was 20. The pest or weed control at 125 g/ha (wild oat (Avena fatua); Avena fatua, post-emergence, 125 g ai/ha, scale 0 to 100 (0 no effect, 100 complete control), read-out: Oat, Wild plant response rating) was 40%, the “Plant response rating (scale of 0 to 100), Windgrass” value (“Plant response rating … Windgrass” below) ([7]; 16 g ai/ha) was 50 and the “Plant response rating … Windgrass” value ([7]; 31 g ai/ha) was 60. The “Plant response rating … Windgrass” value ([7]; 62 g ai/ha) was 70, the pest or weed control at 125 g/ha ([7]; Apera spica-venti, post-emergence, 125 g ai/ha, scale 0 to 100 (0 no effect, 100 complete control), read-out: Windgrass plant response rating) was 70% and the “Sprangletop, Brdd. plant response rating” value ([8]; 32 g ai/ha) was 0. The “Sprangletop, Brdd. plant response rating” value ([8]; 64 g ai/ha) was 0, the “Sprangletop, Brdd. plant response rating” value ([8]; 125 g ai/ha) was 40 and the “Sprangletop, Brdd. plant response rating” value ([8]; 250 g ai/ha) was 40. The “Plant response rating, Sprangletop, Brdd.” value ([8]; 16 g ai/ha) was 0, the “Junglerice plant response rating” value ([9]; 32 g ai/ha) was 0 and the “Junglerice plant response rating” value ([9]; 64 g ai/ha) was 0. The “Junglerice plant response rating” value ([9]; 125 g ai/ha) was 40, the “Junglerice plant response rating” value ([9]; 250 g ai/ha) was 40 and the “Plant response rating, Junglerice” value ([9]; 16 g ai/ha) was 0. For the same molecule, the “Watergrass, Late plant response rating” value ([10]; 32 g ai/ha) was 0, the “Watergrass, Late plant response rating” value ([10]; 64 g ai/ha) was 0 and the “Watergrass, Late plant response rating” value ([10]; 125 g ai/ha) was 0. For the same molecule, the “Watergrass, Late plant response rating” value ([10]; 250 g ai/ha) was 25, the “Plant response rating, Watergrass, Late” value ([10]; 16 g ai/ha) was 0 and the “Flatsedge, Rice plant response rating” value ([11]; 32 g ai/ha) was 80. For the same molecule, the “Flatsedge, Rice plant response rating” value ([11]; 64 g ai/ha) was 100, the “Flatsedge, Rice plant response rating” value ([11]; 125 g ai/ha) was 100 and the “Flatsedge, Rice plant response rating” value ([11]; 250 g ai/ha) was 100. The “Plant response rating, Flatsedge, Rice” value ([11]; 16 g ai/ha) was 0, the “Sedge, Umbrella plant response rating” value ([12]; 32 g ai/ha) was 80 and the “Sedge, Umbrella plant response rating” value ([12]; 64 g ai/ha) was 85. For the same molecule, the “Sedge, Umbrella plant response rating” value ([12]; 125 g ai/ha) was 100, the “Sedge, Umbrella plant response rating” value ([12]; 250 g ai/ha) was 100 and the “Plant response rating, Sedge, Umbrella” value ([12]; 16 g ai/ha) was 20. For the same molecule, the melting point was 158 to 160 °C.
